The source made the active and inactive calls. The calls are words filed in the database; no cut-off is given here.
Tests used:
Influenza A virus [1] = experiment: microbe, parasite or virus in culture; conditions: H5N1, MDCK, 48 h
Influenza A virus [2] = experiment: Antiviral activity against influenza A virus (A/Puerto Rico/8/34) H1N1; type: functional, organism-based; conditions: (A/Puerto Rico/8/34) H1N1, MDCK
Influenza A virus [3] = experiment: Antiviral activity against influenza A virus (A/Vietnam/1203/2004) H5N1; type: functional, organism-based; conditions: (A/Vietnam/1203/2004) H5N1, MDCK
[4] = Cmax in overnight fasted po dosed Sprague-Dawley rat plasma measured at 0.25 to 24 hrs post dose by LC-MS/MS method; type: ADME, organism-based; parameters: time upper 24 hrs, time lower 0.25 hrs, route po
Influenza A virus [5] = type: functional, organism-based; conditions: H5N1, MDCK, DDE = dose-dependent effect
[6] = Acute toxicity in BALB/c mouse infected with influenza A virus A/PR/8/34 assessed as reduction in body weight at 2000 mg/kg, po administered 3 times per day; type: organism-based; conditions: in vivo
[7] = Tmax in overnight fasted po dosed Sprague-Dawley rat plasma measured at 0.25 to 24 hrs post dose by LC-MS/MS method; type: ADME, organism-based; conditions: time 0.25-24 hrs
Influenza A virus [8] = type: functional, organism-based; conditions: H5N1, MDCK, dose 0.03-100 µM, time 12.0 hrs, DDE = dose-dependent effect
Influenza A virus [9] = type: functional, organism-based; conditions: H5N1, MDCK
[10] = AUC(0 to infinity) in overnight fasted iv dosed Sprague-Dawley rat measured at 0.083 to 24 hrs post dose by LC-MS/MS method; type: ADME, organism-based; parameters: time 0.083-24 hrs, route iv; conditions: in vivo
[11] = Elimination half life in overnight fasted Sprague-Dawley rat at 0.20 ml, iv measured at 0.083 to 24 hrs post dose by LC-MS/MS method; type: ADME, organism-based; conditions: in vivo, 0.2 ml, time 0.083-24 hrs, read-out: beta t1/2 (converted)
[12] = Clearance in overnight fasted iv dosed Sprague-Dawley rat measured at 0.083 to 24 hrs post dose by LC-MS/MS method; type: ADME, organism-based; conditions: in vivo, time 0.083-24 hrs
Influenza A virus [13] = type: functional, organism-based; conditions: H5N1, MDCK, dose 1.0 µM, time 48.0 hrs
Influenza A virus [14] = type: functional, organism-based; conditions: H5N1, A549, dose 0.018 µM, time 1.0 hrs
[15] = Cmax in overnight fasted iv dosed Sprague-Dawley rat plasma measured at 0.083 to 24 hrs post dose by LC-MS/MS method; type: ADME, organism-based; parameters: time upper 24 hrs, time lower 0.083 hrs, route iv
[16] = Binding affinity to influenza A virus RNA-dependent RNA polymerase PB1 subunit expressed in human 293T cells assessed as dissociation constant by MST assay; conditions: hek293t
[17] = AUC(0 to t) in overnight fasted po dosed Sprague-Dawley rat measured at 0.25 to 24 hrs post dose by LC-MS/MS method; type: ADME, organism-based; parameters: time 0.25-24 hrs, route po; conditions: in vivo
Influenza A virus [18] = type: functional, organism-based; conditions: H5N1, MDCK, dose 0.8 µM, time 12.0 hrs
HEK293T [19] = experiment: Inhibition of influenza A/WSN/H1N1 virus RNA-dependent RNA polymerase activity in human 293 T cells co-transfected with pPOLI-Fluc assessed as reduction in luciferase activity at 0.1 uM incubated for 48 hrs by luciferase reporter gene assay relative to control; type: cell-based
Influenza A virus [20] = type: functional, organism-based; conditions: H5N1, MDCK, time 12.0 hrs
[21] = AUC(0 to t) in overnight fasted iv dosed Sprague-Dawley rat measured at 0.083 to 24 hrs post dose by LC-MS/MS method; type: ADME, organism-based; parameters: time upper 24 hrs, time lower 0.083 hrs, route iv; conditions: in vivo
[22] = Oral bioavailability in overnight fasted Sprague-Dawley rat measured at 0.25 to 24 hrs post dose by LC-MS/MS method; type: ADME, organism-based; conditions: in vivo, time 0.25-24 hrs
HEK293T [23] = experiment: Inhibition of influenza A/WSN/H1N1 virus RNA-dependent RNA polymerase activity in human 293 T cells co-transfected with pPOLI-Fluc assessed as reduction in luciferase activity incubated for 48 hrs by luciferase reporter gene assay; type: cell-based
Influenza A virus [24] = type: functional, A/PR/8/34; conditions: dose 10 mg/kg; route po; time 1 hrs
[25] = Tmax in overnight fasted iv dosed Sprague-Dawley rat plasma measured at 0.083 to 24 hrs post dose by LC-MS/MS method; type: ADME, organism-based; conditions: time 0.083-24 hrs
[26] = AUC(0 to infinity) in overnight fasted po dosed Sprague-Dawley rat measured at 0.25 to 24 hrs post dose by LC-MS/MS method; type: ADME, organism-based; parameters: time upper 24 hrs, time lower 0.25 hrs, route po; conditions: in vivo
[27] = Bioavailability in overnight fasted iv dosed Sprague-Dawley rat measured at 0.083 to 24 hrs post dose by LC-MS/MS method; type: ADME, organism-based; conditions: in vivo, time 0.083-24 hrs
[28] = Elimination half life in overnight fasted po dosed Sprague-Dawley rat measured at 0.25 to 24 hrs post dose by LC-MS/MS method; type: ADME, organism-based; conditions: in vivo, time 0.25-24 hrs, read-out: beta t1/2 (converted)
HEK293T [29] = experiment: Inhibition of influenza A/WSN/H1N1 virus RNA-dependent RNA polymerase activity in human 293 T cells co-transfected with pPOLI-Fluc assessed as reduction in luciferase activity at 0.01 uM incubated for 48 hrs by luciferase reporter gene assay relative to control; type: cell-based
Influenza A virus [30] = type: functional, A/PR/8/34; conditions: dose 20 mg/kg; route ig; time 1 hrs
A549 = experiment: Induction of ROS generation in human A549 cells at 50 ug/ml incubated for 30 mins by DCFH-DA dye based fluorescence microscopy; type: functional, cell-based; conditions: dose 50.0 µg/ml
Influenza A virus [31] = type: functional; conditions: H5N1, MDCK, time 12 hrs
HEK293T [32] = experiment: Inhibition of influenza A/WSN/H1N1 virus RNA-dependent RNA polymerase activity in human 293 T cells co-transfected with pPOLI-Fluc assessed as reduction of Fluc/Rluc ratio incubated for 48 hrs; type: cell-based; conditions: DDE = dose-dependent effect
Influenza A virus [33] = conditions: mdck
Influenza A virus [34] = type: functional, organism-based; conditions: A/Anhui/1/2013 (H7N9), MDCK, 48 h
Influenza A virus [35] = type: functional, organism-based; conditions: A/Aichi/2/68 (H3N2), MDCK, 48 h
Influenza A virus [36] = type: functional, organism-based; conditions: A/Puerto Rico/8/34 (H1N1), MDCK, 48 h
Influenza A virus [37] = type: functional, organism-based; conditions: A/Vietnam/1194/2004 (H5N1), MDCK, 48 h

CCOc1ccc(C(=O)NNc2c(F)cccc2F)cc1
EC50 (Influenza A virus [1]): 31000 nM

CCOc1ccc(C(=O)NNc2ccc(Br)cc2Br)cc1
EC50 (Influenza A virus [1]): > 100000 nM

CN(C)c1ccc(C(=O)NNc2c(Cl)cccc2Cl)cc1
EC50 (Influenza A virus [1]): 46 nM

CCCOc1ccc(C(=O)NNc2c(Br)cccc2Br)cc1
EC50 (Influenza A virus [1]): 23 nM

CCOc1ccc(C(=O)N(C)Nc2c(Cl)cccc2Cl)cc1
EC50 (Influenza A virus [1]): > 100000 nM

CCOc1ccc(C(=O)Nc2c(Br)cccc2Br)cc1
EC50 (Influenza A virus [1]): > 100000 nM

CCOc1ccc(C(=O)NNc2c(C)cccc2C)cc1
EC50 (Influenza A virus [1]): 460 nM

COc1ccc(C(=O)NNc2c(F)cccc2F)cc1
EC50 (Influenza A virus [1]): > 100000 nM

Nc1ccc(C(=O)NNc2c(Br)cccc2Br)cc1
EC50 (Influenza A virus [1]): 7800 nM

O=C(NNc1c(Br)cccc1Br)c1ccc(-c2ccccc2)cc1
EC50 (Influenza A virus [1]): 83 nM

CCc1ccc(C(=O)NNc2c(Br)cccc2Br)cc1
EC50 (Influenza A virus [1]): 78 nM

CCOc1ccc(C(=O)NNc2ccc(Br)cc2)cc1
EC50 (Influenza A virus [1]): > 100000 nM

O=C(NNc1c(Br)cccc1Br)c1ccc(B(O)O)cc1
EC50 (Influenza A virus [1]): > 100000 nM

CCOc1ccc(C(=O)NNc2c(Br)cc(Br)cc2Br)cc1
EC50 (Influenza A virus [1]): 4200 nM

O=C(NNc1c(Cl)cccc1Cl)c1cccs1
EC50 (Influenza A virus [1]): > 100000 nM

O=C(NNc1c(Cl)cccc1Cl)c1ccccc1
EC50 (Influenza A virus [1]): > 100000 nM

COc1ccccc1C(=O)NNc1c(Br)cccc1Br
EC50 (Influenza A virus [1]): > 100000 nM

O=C(NNc1c(Br)cccc1Br)c1ccc(OCC(F)(F)F)cc1
EC50 (Influenza A virus [1]): 34 nM

CN(C)c1ccc(C(=O)NNc2c(Br)cc(Br)cc2Br)cc1
EC50 (Influenza A virus [1]): 230 nM

CCOc1ccc(C(=O)NNc2c(C)cccc2Cl)cc1
EC50 (Influenza A virus [1]): 100 nM

CCCc1ccc(C(=O)NNc2c(Cl)cccc2Cl)cc1
EC50 (Influenza A virus [1]): 190 nM

CN(C)c1ccc(C(=O)NNc2c(Br)cccc2Br)cc1
EC50 (Influenza A virus [1]): 31 nM

N#Cc1ccc(C(=O)NNc2c(Br)cccc2Br)cc1
EC50 (Influenza A virus [1]): > 100000 nM

CCc1ccc(C(=O)NNc2c(Br)cc(Br)cc2Br)cc1
EC50 (Influenza A virus [1]): 4400 nM

COc1cccc(C(=O)NNc2c(Br)cccc2Br)c1
EC50 (Influenza A virus [1]): > 100000 nM

O=C(O)[C@H]1C2CCC(CC2)[C@@H]1Nc1nc(-c2c[nH]c3ncc(F)cc23)ncc1F [PIMODIVIR]
EC50 (Influenza A virus [2]): 0.3 nM
EC50 (Influenza A virus [3]): 0.1 nM

CC(C)(C)c1ccc(C(=O)NNc2c(Br)cccc2Br)cc1
EC50 (Influenza A virus [1]): 37 nM

O=C(NNc1c(Br)cccc1Br)c1ccc2ncccc2c1
EC50 (Influenza A virus [1]): 24000 nM

COC(=O)c1ccc(C(=O)NNc2c(Br)cccc2Br)cc1
EC50 (Influenza A virus [1]): 330 nM

O=C(O)c1ccc(C(=O)NNc2c(Br)cccc2Br)cc1
EC50 (Influenza A virus [1]): > 100000 nM

CCCCOc1ccc(C(=O)NNc2c(Br)cccc2Br)cc1
EC50 (Influenza A virus [1]): 230 nM

CN(C)c1ccc(C(=O)NNc2c(F)cccc2F)cc1
EC50 (Influenza A virus [1]): > 100000 nM

O=C(NNc1c(Br)cccc1Br)c1ccc(O)cc1
EC50 (Influenza A virus [1]): > 100000 nM

O=C(NNc1c(Br)cccc1Br)c1ccc(Br)cc1
EC50 (Influenza A virus [1]): 22000 nM

CCOc1ccc(C(=O)NNc2c(Cl)cccc2Cl)cc1
EC50 (Influenza A virus [1]): 77 nM

O=C(NNc1c(Br)cccc1Br)c1ccc(N2CCOCC2)cc1
Cmax [4]: 635 ng/mL
Activity (Influenza A virus [5]): Dde
Activity [6]: Toxic
Tmax [7]: 25.2 min
Activity (Influenza A virus [8]): Dde
Activity (Influenza A virus [9]): Active
AUC(0-inf) [10]: 1500 ng·h/mL
half-life [11]: 90 min
clearance [12]: 33.8 mL/min/kg
Activity (Influenza A virus [13]): Active
Activity (Influenza A virus [14]): Active
EC50 (Influenza A virus [1]): 18 nM
Cmax [15]: 2520 ng/mL
Kd [16]: 351 nM
AUC(0-t) [17]: 1590 ng·h/mL
Activity (Influenza A virus [18]): Active
inhibition (HEK293T [19]): 91%
Activity (Influenza A virus [20]): Active
AUC(0-t) [21]: 1480 ng·h/mL
bioavailability [22]: 32.2%
Activity (HEK293T [23]): Active
Activity (Influenza A virus [24]): 100%
Tmax [25]: 4.8 min
AUC(0-inf) [26]: 1710 ng·h/mL
F [27]: 100%
half-life [28]: 109 min
inhibition (HEK293T [29]): 60%
Activity (Influenza A virus [30]): 70%
Activity (A549): Active
inhibition at 0.03 µM (Influenza A virus [31]): > 50%
Activity (HEK293T [32]): Dde

CCOc1ccc(C(=O)NNc2ccccc2Br)cc1
EC50 (Influenza A virus [1]): > 100000 nM

O=C(NNc1c(Br)cccc1Br)c1ccc(F)cc1
EC50 (Influenza A virus [1]): 88000 nM

Cc1ccc(C(=O)NNc2c(Cl)cccc2Cl)cc1
EC50 (Influenza A virus [1]): 4100 nM

CC(=O)N[C@H]1[C@H]([C@H](O)[C@H](O)CO)OC(C(=O)O)=C[C@@H]1NC(=N)N [ZANAMIVIR]
EC50 (Influenza A virus [33]): 160 nM
EC50 (Influenza A virus [1]): 76 nM

CCOc1ccc(C(=O)NNc2c(Br)cccc2Br)cc1
EC50 (Influenza A virus [1]): 34 nM

O=C(NNc1c(Br)cccc1Br)c1ccc2c(c1)OCO2
EC50 (Influenza A virus [1]): 13000 nM

NC(=O)c1nc(F)cnc1O
Activity (Influenza A virus [20]): Active

Cc1cccc(C)c1NNC(=O)c1ccc(C(C)(C)C)cc1
EC50 (Influenza A virus [1]): 220 nM

O=C(NNc1c(Br)cccc1Br)c1cccnc1
EC50 (Influenza A virus [1]): > 100000 nM

O=C(NNc1c(Br)cccc1Br)c1ccc2ccccc2c1
EC50 (Influenza A virus [1]): 1200 nM

CCOc1ccc(C(=O)NNc2cccc(Br)c2)cc1
EC50 (Influenza A virus [1]): > 100000 nM

CCN(CC)c1ccc(C(=O)NNc2c(Br)cccc2Br)cc1
EC50 (Influenza A virus [1]): 9.3 nM

O=C(NNc1c(Br)cccc1Br)c1ccccc1
EC50 (Influenza A virus [1]): 81000 nM

COc1ccc(C(=O)NNc2c(Br)cccc2Br)cc1
EC50 (Influenza A virus [1]): 2300 nM

O=c1oc2cc(O)cc(O)c2c2ccccc12
EC50 (Influenza A virus [34]): 1700 nM
EC50 (Influenza A virus [35]): 1700 nM
EC50 (Influenza A virus [36]): 1700 nM
EC50 (Influenza A virus [37]): 1700 nM

From ChEMBL document CHEMBL5154759, “Discovery of Aryl Benzoyl Hydrazide Derivatives as Novel Potent Broad-Spectrum Inhibitors of Influenza A Virus RNA-Dependent RNA Polymerase (RdRp)” (J Med Chem, 2022)
